Activity data for one compound are collected here from ChEMBL document CHEMBL5678818, “Discovery of potent SOS1 inhibitors that block RAS activation via disruption of the RAS-SOS1 interaction” (Proc Natl Acad Sci U S A, 2019).

The structures appear in SMILES notation.

Experiment [1] addresses Mitogen-activated protein kinase kinase kinase 12 (Homo sapiens) (UniProt Q12852). As to the kind of experiment: Inhibition of DLK (unknown origin) assessed as residual activity at 100 nM by KINOMEscan analysis relative to control.
Experiment [2] deals with Cyclin-dependent kinase 17 (Homo sapiens) (UniProt Q00537). Description: Inhibition of PCTK2 (unknown origin) assessed as residual activity at 100 nM by KINOMEscan analysis relative to control.
Cyclin-dependent kinase 17 (Homo sapiens), sequence (Q00537 whole entry, looked up): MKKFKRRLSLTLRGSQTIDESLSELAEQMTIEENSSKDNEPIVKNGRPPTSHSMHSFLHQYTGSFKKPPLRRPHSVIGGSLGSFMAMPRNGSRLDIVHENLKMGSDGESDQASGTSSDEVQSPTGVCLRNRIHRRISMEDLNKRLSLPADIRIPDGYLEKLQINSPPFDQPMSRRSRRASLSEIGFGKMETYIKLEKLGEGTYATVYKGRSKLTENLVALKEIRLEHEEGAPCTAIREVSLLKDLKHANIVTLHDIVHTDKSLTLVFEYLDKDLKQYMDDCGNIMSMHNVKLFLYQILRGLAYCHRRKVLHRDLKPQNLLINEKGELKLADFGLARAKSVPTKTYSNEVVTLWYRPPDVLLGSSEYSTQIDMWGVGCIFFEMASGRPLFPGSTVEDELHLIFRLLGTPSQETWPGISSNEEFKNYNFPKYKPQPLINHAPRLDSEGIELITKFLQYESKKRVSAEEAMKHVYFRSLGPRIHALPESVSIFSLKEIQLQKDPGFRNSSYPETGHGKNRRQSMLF
The target of experiment [3] is Microtubule-associated serine/threonine-protein kinase 1 (Homo sapiens) (UniProt Q9Y2H9). Description: Inhibition of MAST1 (unknown origin) assessed as residual activity at 100 nM by KINOMEscan analysis relative to control.
Microtubule-associated serine/threonine-protein kinase 1 (Homo sapiens), sequence (Q9Y2H9 whole entry, looked up): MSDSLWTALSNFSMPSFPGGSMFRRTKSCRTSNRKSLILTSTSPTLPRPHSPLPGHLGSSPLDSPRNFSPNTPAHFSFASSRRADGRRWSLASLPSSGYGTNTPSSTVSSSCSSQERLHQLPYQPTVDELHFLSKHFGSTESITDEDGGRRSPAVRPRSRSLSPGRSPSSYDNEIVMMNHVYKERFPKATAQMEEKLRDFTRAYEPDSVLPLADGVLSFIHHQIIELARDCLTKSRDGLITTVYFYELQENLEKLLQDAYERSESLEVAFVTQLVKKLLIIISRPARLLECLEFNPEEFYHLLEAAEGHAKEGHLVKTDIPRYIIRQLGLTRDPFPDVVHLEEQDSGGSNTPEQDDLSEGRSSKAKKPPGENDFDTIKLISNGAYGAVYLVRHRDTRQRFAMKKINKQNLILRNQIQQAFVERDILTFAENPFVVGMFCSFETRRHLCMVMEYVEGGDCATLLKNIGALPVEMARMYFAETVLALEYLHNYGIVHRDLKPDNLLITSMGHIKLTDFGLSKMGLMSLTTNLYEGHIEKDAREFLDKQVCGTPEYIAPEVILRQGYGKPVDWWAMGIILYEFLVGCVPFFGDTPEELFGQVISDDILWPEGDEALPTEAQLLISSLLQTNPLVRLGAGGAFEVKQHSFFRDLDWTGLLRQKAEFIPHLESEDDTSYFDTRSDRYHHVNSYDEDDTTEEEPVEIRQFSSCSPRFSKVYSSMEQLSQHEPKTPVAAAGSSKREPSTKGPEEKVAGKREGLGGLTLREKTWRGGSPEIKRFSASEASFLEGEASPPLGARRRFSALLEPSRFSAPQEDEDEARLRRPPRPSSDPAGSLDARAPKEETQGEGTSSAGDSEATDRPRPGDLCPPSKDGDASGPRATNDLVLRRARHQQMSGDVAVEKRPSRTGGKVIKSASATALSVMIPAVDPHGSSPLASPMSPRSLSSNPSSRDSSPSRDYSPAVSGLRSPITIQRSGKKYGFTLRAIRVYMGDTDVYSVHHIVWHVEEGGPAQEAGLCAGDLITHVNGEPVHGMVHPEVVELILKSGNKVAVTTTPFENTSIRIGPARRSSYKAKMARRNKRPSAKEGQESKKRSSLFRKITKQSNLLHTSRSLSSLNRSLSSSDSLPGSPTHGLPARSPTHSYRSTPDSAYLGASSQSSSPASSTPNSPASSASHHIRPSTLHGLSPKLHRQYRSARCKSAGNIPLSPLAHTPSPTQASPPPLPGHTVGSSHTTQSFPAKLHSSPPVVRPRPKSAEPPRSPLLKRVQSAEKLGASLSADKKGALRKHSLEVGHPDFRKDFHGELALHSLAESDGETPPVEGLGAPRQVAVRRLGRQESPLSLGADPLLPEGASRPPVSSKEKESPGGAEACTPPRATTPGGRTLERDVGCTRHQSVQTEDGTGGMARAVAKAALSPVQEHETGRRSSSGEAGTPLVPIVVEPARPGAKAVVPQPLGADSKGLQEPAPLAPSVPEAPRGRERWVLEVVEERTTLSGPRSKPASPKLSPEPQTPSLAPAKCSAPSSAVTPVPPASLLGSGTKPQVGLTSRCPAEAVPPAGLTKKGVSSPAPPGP
Experiment [4] has as its target Serine/threonine-protein kinase 16 (Homo sapiens) (UniProt O75716). As to the kind of experiment: Inhibition of STK16 (unknown origin) assessed as residual activity at 100 nM by KINOMEscan analysis relative to control.
Experiment [5] addresses T1, Ephrin type-B receptor 1 (Homo sapiens) (UniProt P54762).
T1 sequence (whole entry): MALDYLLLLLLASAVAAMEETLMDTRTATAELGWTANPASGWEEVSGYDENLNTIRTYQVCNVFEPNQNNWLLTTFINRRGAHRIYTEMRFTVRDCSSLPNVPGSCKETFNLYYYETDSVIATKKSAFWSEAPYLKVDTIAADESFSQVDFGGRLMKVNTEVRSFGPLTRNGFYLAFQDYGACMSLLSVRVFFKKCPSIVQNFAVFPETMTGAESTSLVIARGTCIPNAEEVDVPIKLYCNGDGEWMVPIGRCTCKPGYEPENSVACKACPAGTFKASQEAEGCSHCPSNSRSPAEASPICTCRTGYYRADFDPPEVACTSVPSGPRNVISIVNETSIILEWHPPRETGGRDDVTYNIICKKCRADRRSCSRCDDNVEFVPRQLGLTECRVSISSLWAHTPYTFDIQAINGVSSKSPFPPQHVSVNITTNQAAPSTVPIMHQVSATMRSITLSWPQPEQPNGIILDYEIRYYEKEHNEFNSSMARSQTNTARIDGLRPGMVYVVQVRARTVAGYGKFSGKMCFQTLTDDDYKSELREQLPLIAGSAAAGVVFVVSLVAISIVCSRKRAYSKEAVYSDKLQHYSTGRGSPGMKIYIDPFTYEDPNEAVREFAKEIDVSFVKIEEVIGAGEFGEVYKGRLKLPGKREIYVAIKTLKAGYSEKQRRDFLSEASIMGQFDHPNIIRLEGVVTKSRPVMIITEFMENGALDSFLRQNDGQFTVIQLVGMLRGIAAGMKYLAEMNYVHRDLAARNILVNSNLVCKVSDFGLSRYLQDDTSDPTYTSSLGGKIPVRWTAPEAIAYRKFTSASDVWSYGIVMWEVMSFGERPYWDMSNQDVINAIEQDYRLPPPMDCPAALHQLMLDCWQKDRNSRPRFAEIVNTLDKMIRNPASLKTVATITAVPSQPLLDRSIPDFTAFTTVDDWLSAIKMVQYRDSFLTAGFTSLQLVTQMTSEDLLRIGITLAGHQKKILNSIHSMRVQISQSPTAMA
As to the kind of experiment: Inhibition of EPHB1 (unknown origin) assessed as residual activity at 100 nM by KINOMEscan analysis relative to control.

The test system of experiment [6] is Tyrosine-protein kinase ABL1 (Homo sapiens), P00519 [E255K]. As to the kind of experiment: Inhibition of phosphorylated ABL1 E255K mutant (unknown origin) assessed as residual activity at 100 nM by KINOMEscan analysis relative to control.
Tyrosine-protein kinase ABL1 (Homo sapiens), P00519 [E255K], sequence (P00519 whole entry E255K): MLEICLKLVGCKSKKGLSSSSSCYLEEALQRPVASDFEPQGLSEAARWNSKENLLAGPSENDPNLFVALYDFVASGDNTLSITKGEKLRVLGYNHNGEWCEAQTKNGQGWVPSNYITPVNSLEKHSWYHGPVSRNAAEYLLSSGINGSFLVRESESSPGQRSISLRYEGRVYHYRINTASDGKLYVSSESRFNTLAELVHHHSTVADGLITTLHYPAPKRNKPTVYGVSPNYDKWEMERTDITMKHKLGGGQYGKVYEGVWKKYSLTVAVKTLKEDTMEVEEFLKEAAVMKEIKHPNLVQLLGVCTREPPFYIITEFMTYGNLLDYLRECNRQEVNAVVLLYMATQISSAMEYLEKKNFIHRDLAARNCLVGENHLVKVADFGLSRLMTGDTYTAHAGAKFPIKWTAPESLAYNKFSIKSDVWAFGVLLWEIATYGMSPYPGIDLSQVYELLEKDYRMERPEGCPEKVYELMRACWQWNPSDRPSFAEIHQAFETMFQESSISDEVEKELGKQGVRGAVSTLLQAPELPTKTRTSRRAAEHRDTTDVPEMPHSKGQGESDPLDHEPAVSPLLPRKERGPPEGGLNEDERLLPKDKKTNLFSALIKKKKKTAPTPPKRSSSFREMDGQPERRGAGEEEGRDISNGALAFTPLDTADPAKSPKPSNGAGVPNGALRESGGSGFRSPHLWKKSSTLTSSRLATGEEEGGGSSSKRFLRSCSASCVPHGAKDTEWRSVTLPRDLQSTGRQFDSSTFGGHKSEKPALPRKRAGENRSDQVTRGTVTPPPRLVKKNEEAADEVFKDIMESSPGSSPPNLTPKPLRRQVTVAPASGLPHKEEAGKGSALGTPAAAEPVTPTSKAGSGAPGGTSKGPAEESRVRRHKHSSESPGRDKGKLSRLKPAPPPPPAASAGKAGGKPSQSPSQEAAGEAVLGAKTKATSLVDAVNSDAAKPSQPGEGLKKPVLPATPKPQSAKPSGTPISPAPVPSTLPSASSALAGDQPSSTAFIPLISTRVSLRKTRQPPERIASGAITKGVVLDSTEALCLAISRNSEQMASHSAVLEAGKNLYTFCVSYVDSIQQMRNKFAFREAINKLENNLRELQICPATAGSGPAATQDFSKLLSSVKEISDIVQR
The target in experiment [7] is T2, Mitogen-activated protein kinase kinase kinase 15 (Homo sapiens) (UniProt Q6ZN16).
T2 sequence (whole entry): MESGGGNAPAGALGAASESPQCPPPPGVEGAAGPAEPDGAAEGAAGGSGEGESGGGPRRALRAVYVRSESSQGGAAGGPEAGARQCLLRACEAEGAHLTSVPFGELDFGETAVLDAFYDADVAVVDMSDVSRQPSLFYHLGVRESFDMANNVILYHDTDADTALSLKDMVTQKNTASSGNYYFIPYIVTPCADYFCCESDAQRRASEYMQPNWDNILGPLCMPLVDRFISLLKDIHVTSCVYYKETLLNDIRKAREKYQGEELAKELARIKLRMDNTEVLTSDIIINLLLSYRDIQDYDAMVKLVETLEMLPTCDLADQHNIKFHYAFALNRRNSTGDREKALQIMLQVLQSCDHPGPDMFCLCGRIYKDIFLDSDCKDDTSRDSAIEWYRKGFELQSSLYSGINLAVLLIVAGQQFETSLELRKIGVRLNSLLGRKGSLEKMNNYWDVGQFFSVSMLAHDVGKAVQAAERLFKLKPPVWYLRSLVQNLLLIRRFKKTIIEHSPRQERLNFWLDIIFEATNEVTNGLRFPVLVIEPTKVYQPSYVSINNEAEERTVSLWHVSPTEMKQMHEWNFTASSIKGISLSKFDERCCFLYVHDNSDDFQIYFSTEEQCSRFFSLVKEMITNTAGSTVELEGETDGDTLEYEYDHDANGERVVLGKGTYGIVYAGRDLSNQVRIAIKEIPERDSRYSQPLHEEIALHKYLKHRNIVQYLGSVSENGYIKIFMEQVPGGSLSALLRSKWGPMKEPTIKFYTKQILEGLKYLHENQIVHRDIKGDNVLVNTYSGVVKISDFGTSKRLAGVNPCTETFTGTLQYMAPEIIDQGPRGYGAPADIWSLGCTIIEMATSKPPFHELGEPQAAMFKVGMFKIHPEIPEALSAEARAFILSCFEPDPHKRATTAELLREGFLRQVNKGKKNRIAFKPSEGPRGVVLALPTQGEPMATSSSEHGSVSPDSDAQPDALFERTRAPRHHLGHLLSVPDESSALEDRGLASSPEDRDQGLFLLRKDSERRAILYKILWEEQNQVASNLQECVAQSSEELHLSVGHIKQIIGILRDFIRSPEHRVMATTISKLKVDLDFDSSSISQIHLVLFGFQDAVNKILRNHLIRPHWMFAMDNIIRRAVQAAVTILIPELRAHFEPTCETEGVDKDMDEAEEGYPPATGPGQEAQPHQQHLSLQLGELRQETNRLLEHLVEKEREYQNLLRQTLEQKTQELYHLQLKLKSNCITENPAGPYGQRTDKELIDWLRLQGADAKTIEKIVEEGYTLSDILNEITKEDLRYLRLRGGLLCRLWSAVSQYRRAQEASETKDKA
As to the kind of experiment: Inhibition of MAP3K15 (unknown origin) assessed as residual activity at 100 nM by KINOMEscan analysis relative to control.

Mitogen-activated protein kinase kinase kinase 12 (Homo sapiens), sequence (Q12852 whole entry, looked up): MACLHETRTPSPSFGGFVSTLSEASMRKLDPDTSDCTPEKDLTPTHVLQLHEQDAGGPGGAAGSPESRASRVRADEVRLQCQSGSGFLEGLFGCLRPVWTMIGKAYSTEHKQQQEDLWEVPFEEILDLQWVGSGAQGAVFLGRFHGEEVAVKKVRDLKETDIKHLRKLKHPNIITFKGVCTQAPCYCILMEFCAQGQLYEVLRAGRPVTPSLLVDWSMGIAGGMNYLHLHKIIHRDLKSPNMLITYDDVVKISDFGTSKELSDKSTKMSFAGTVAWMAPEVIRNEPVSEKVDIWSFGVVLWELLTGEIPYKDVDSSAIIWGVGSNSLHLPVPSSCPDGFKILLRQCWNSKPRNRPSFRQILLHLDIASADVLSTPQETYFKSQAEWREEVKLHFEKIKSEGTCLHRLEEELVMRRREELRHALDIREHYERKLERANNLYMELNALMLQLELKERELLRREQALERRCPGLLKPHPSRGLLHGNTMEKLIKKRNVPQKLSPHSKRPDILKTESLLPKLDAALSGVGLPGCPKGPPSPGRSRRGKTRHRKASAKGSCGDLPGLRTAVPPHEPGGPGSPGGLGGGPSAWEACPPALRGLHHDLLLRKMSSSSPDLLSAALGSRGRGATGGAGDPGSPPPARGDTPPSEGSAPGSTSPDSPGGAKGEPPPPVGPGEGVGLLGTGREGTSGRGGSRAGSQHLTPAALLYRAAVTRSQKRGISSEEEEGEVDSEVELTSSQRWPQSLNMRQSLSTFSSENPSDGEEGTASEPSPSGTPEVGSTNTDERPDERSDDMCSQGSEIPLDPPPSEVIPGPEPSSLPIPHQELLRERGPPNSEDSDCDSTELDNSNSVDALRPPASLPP
Serine/threonine-protein kinase 16 (Homo sapiens), sequence (O75716 whole entry): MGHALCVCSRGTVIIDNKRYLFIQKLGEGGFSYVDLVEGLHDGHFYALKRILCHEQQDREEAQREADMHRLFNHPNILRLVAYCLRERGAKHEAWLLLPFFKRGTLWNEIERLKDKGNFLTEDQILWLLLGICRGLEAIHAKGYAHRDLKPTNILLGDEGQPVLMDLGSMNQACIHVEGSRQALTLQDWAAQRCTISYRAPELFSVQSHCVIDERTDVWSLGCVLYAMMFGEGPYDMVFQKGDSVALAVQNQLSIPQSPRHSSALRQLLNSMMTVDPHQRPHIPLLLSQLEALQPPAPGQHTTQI

In the case of `COc1cc2ncnc(N[C@H](C)c3cccc4ccccc34)c2cc1OC`, the Activity in experiment [1] is 89%; in experiment [2] it was 86%; in experiment [3], 71%; in experiment [4], 93%; in experiment [5], 83%; in experiment [6], 99%. Moreover, the Activity in experiment [7] turned out to be 86%.
